Assay results as given in ChEMBL document CHEMBL4819097, “Identification of an allosteric and Smad3-selective inhibitor of p38αMAPK using a substrate-based approach” (Bioorg Med Chem Lett, 2021).
Active and inactive are the calls of the source. No cut-off for these calls is given here. Peptide text beside a SMILES is read from it.

Legend:
[1] = target: T1, Mitogen-activated protein kinase 14 (Homo sapiens, UniProt Q16539); assay: Binding affinity to P38alpha MAPK (unknown origin) using Smad3 as substrate incubated for 1 hr in presence of ATP by ELISA based competitive binding potency assay
T1 sequence (Q16539 whole entry): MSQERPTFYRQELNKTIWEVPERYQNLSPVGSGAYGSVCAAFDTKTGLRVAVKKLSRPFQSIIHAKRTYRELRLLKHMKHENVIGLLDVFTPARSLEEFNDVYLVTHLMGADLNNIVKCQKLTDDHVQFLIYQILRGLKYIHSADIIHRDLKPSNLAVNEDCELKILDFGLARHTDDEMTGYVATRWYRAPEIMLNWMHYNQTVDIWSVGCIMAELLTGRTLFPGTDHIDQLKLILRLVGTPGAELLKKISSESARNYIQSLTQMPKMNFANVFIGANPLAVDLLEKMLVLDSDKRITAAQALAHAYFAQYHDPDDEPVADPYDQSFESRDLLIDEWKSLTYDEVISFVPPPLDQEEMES

[2] = target: T1, Mitogen-activated protein kinase 14; assay: Binding affinity to recombinant human N-terminal GST-tagged P38alpha MAPK expressed in Escherichia coli using ERKtide as substrate by mobility shift assay
[3] = target: T1, Mitogen-activated protein kinase 14; assay: Binding affinity to P38alpha MAPK (unknown origin) using Smad3 as substrate incubated for 1 hr in presence of increasing concentration of ATP by ELISA
[4] = target: T1, Mitogen-activated protein kinase 14; assay: Binding affinity to P38alpha MAPK (unknown origin) using MAPKAPK2 as substrate incubated for 1 hr by ELISA
[5] = target: T1, Mitogen-activated protein kinase 14; assay: Binding affinity to P38alpha MAPK (unknown origin) using MBP as substrate incubated for 1 hr by ELISA

SMILES	IC50 [1]	IC50 [2]	Activity [3]	IC50 [4]	IC50 [5]
CC(C)C[C@H](NC(=O)[C@H](C)NC(=O)[C@H](CCCNC(=N)N)NC(=O)[C@H](C)NC(=O)[C@H](CCCCN)NC(=O)[C@H](CCCNC(=N)N)NC(=O)[C@H](CCCNC(=N)N)NC(=O)[C@H](CCCNC(=N)N)NC(=O)[C@H](CCCCN)NC(=O)[C@H](CC(C)C)NC(=O)[C@H](CC(C)C)NC(=O)[C@H](CC(C)C)NC(=O)[C@@H]1CCCN1C(=O)[C@H](CC(N)=O)NC(=O)[C@@H](N)CO)C(=O)O (H-SNPLLLKRRRKARAL-OH)	0.29 µM				
CC(C)C[C@H](NC(=O)[C@@H](NC(=O)[C@@H]1CCCN1C(=O)[C@@H]1CCCN1C(=O)[C@@H](N)CC(C)C)C(C)C)C(=O)N[C@H](C(=O)N1CCC[C@H]1C(=O)N[C@@H](CCCNC(=N)N)C(=O)N[C@@H](Cc1cnc[nH]1)C(=O)N[C@H](C(=O)N[C@@H](CCC(=O)O)C(=O)O)[C@@H](C)O)C(C)C (H-LPPVLVPRHTE-OH)	> 100 µM	> 100 µM			
CC[C@H](C)[C@H](NC(=O)[C@H](CCC(=O)O)NC(=O)[C@@H](NC(=O)[C@H](Cc1cnc[nH]1)NC(=O)[C@H](CCCNC(=N)N)NC(=O)[C@@H]1CCCN1C(=O)[C@@H](NC(=O)[C@H](CC(C)C)NC(=O)[C@@H](NC(=O)[C@@H]1CCCN1C(=O)[C@@H]1CCCN1C(=O)[C@@H](N)CC(C)C)C(C)C)C(C)C)[C@@H](C)O)C(=O)N1CCC[C@H]1C(=O)N[C@@H](C)C(=O)N[C@@H](CCC(=O)O)C(=O)N[C@@H](Cc1ccccc1)C(=O)N1CCC[C@H]1C(=O)N1CCC[C@H]1C(=O)N[C@@H](CC(C)C)C(=O)N[C@@H](CC(=O)O)C(=O)O (H-LPPVLVPRHTEIPAEFPPLD-OH)	> 100 µM	> 100 µM			
CC[C@H](C)[C@H](NC(=O)[C@H](CCCCN)NC(=O)[C@H](CC(C)C)NC(=O)CNC(=O)[C@@H]1CCCN1C(=O)[C@H](CC(N)=O)NC(=O)[C@H](CCCNC(=N)N)NC(=O)[C@H](CCCCN)NC(=O)[C@H](CCCCN)NC(=O)CNC(=O)[C@H](CCCCN)NC(=O)[C@@H](N)CO)C(=O)N1CCC[C@H]1C(=O)O (H-SKGKKRNPGLKIP-OH)	2.6 µM	> 100 µM			
CC[C@H](C)[C@H](N)C(=O)N[C@@H](CCCCN)C(=O)N[C@H](C(=O)N[C@@H](CCCCN)C(=O)N[C@@H](CCCCN)C(=O)N[C@H](C(=O)N[C@@H](CCC(=O)O)C(=O)N[C@@H](CC(=O)O)C(=O)N[C@@H](C)C(=O)N[C@@H](CO)C(=O)N[C@@H](CC(N)=O)C(=O)N1CCC[C@H]1C(=O)N[C@@H](CC(C)C)C(=O)O)[C@@H](C)CC)[C@@H](C)CC (H-IKIKKIEDASNPL-OH)	> 1 µM				
CC[C@H](C)[C@H](N)C(=O)N[C@@H](CCCCN)C(=O)N[C@H](C(=O)N[C@@H](CCCCN)C(=O)N[C@@H](CCCCN)C(=O)N[C@H](C(=O)N[C@@H](CCC(=O)O)C(=O)N[C@@H](CC(=O)O)C(=O)N[C@@H](C)C(=O)N[C@@H](CO)C(=O)N[C@@H](CC(N)=O)C(=O)N1CCC[C@H]1C(=O)N[C@@H](CC(C)C)C(=O)N[C@@H](CC(C)C)C(=O)N[C@@H](CC(C)C)C(=O)N[C@@H](CCCCN)C(=O)N[C@@H](CCCNC(=N)N)C(=O)N[C@@H](CCCNC(=N)N)C(=O)NCC(=O)O)[C@@H](C)CC)[C@@H](C)CC (H-IKIKKIEDASNPLLLKRRG-OH)	0.3 µM				
CC[C@H](C)[C@H](N)C(=O)N[C@@H](CCCCN)C(=O)N[C@H](C(=O)N[C@@H](CCCCN)C(=O)N[C@@H](CCCCN)C(=O)N[C@H](C(=O)N[C@@H](CCC(=O)O)C(=O)N[C@@H](CC(=O)O)C(=O)N[C@@H](C)C(=O)N[C@@H](CO)C(=O)N[C@@H](CC(N)=O)C(=O)N1CCC[C@H]1C(=O)N[C@@H](CC(C)C)C(=O)N[C@@H](CC(C)C)C(=O)N[C@@H](CC(C)C)C(=O)N[C@H](C(=O)N[C@@H](CS)C(=O)N[C@@H](CCCNC(=N)N)C(=O)N[C@@H](CCCNC(=N)N)C(=O)N[C@@H](CCCNC(=N)N)C(=O)N[C@@H](CCCCN)C(=O)N[C@@H](C)C(=O)N[C@@H](CCCNC(=N)N)C(=O)N[C@@H](C)C(=O)N[C@@H](CC(C)C)C(=O)O)[C@@H](C)CC)[C@@H](C)CC)[C@@H](C)CC (H-IKIKKIEDASNPLLLICRRRKARAL-OH)	0.0013 µM	> 100 µM	Active	> 1 µM	> 1 µM

More lines, now with the values ahead:

IC50 [1]	IC50 [2]	Activity [3]	IC50 [4]	IC50 [5]	SMILES
9 µM	> 100 µM				CC[C@H](C)[C@H](NC(=O)[C@H](Cc1c[nH]c2ccccc12)NC(=O)CNC(=O)[C@H](CC(C)C)NC(=O)[C@H](CC(C)C)NC(=O)[C@H](CCCNC(=N)N)NC(=O)[C@H](CS)NC(=O)[C@@H](NC(=O)[C@@H](NC(=O)[C@@H](NC(=O)[C@@H]1CCCN1C(=O)[C@@H]1CCCN1C(=O)[C@@H](NC(=O)[C@H](Cc1ccccc1)NC(=O)[C@@H]1CCCN1C(=O)[C@H](CC(C)C)NC(=O)[C@@H](NC(=O)[C@H](CO)NC(=O)[C@@H](N)CO)[C@@H](C)CC)[C@@H](C)O)[C@@H](C)CC)C(C)C)[C@@H](C)CC)C(=O)N[C@@H](CS)C(=O)N[C@@H](CCCCN)C(=O)NCC(=O)N[C@@H](CCC(=O)O)C(=O)O (H-SSILPFTPPIVICRLLGWICKGE-OH)
> 100 µM	> 100 µM				CC[C@H](C)[C@H](NC(=O)[C@H](CCC(=O)O)NC(=O)[C@@H](NC(=O)[C@H](Cc1cnc[nH]1)NC(=O)[C@H](CCCNC(=N)N)NC(=O)[C@@H]1CCCN1C(=O)[C@@H](NC(=O)[C@H](CC(C)C)NC(=O)[C@@H](NC(=O)[C@@H]1CCCN1C(=O)[C@@H]1CCCN1C(=O)[C@@H](N)CC(C)C)C(C)C)C(C)C)[C@@H](C)O)C(=O)N1CCC[C@H]1C(=O)N[C@@H](C)C(=O)N[C@@H](CCC(=O)O)C(=O)N[C@@H](Cc1ccccc1)C(=O)N1CCC[C@H]1C(=O)N1CCC[C@H]1C(=O)N[C@@H](CC(C)C)C(=O)N[C@@H](CC(=O)O)C(=O)N[C@@H](CC(=O)O)C(=O)N[C@@H](Cc1ccc(O)cc1)C(=O)N[C@@H](CO)C(=O)N[C@@H](Cc1cnc[nH]1)C(=O)N[C@@H](CO)C(=O)N[C@H](C(=O)N1CCC[C@H]1C(=O)N[C@@H](CCC(=O)O)C(=O)N[C@@H](CC(N)=O)C(=O)O)[C@@H](C)CC (H-LPPVLVPRHTEIPAEFPPLDDYSHSIPEN-OH)
		inactive			Oc1ccc(-c2nc(-c3ccc(F)cc3)c(-c3ccncc3)[nH]2)cc1
